Test: Solubility of the compound of formula (I) as a function of time in aqueous solvents (HPLC)
Type: physicochemical
Conditions: thermodynamic from solid; for solubility at 1 h / solubility at 2 h / solubility at 4 h / solubility at 24 h / solubility at 48 h / solubility at 0.5 h: 25° C. water bath, agitated; for solubility at 0.5 h: ½ hr; for solubility at 7 days: kept at room temperature with no agitation
Description: The sample vials were pulled out at each time point, the pH was measured and the sample was filtered a 0.45 μm PTFE membrane filter. The filtrate was appropriately diluted with the dilution solvent and the concentration of the compound was measured using HPLC. HPLC conditions were as follows: Method: Isocratic method, 70% mobile phase A −30% mobile phase B; Column: Supelco Discovery HS-C18, 3 μm, 4.6×150mm; Mobile Phase A: 0.05% TFA in water; B: 0.05% TFA in acetonitrile; Flow rate: 1.0 mL/min; Detection: UV: Wavelength: 240 nm, bandwidth 4 nm; Reference wavelength: 450 nm, bandwidth 80 nm; Run time: 6 min; Injection volume: 10 μL.

[1] = aqueous buffer, 0.1N NaOH (pH ˜12.8)
[2] = aqueous buffer, borate buffer pH 8
[3] = aqueous buffer, borate buffer pH 10
[4] = aqueous buffer, citrate buffer pH 2
[5] = aqueous buffer, citrate buffer pH 4
[6] = aqueous buffer, citrate buffer pH 6
[7] = simulated gastric fluid, 0.1N HCl
[8] = simulated intestinal fluid (SIF), fassgf or other biorelevant, SIF (pH ˜6.75)

Compound: Cc1cnc(NCC(F)(F)c2ccccc2)c(=O)n1CC(=O)NCCONC(=N)N [compound of formula (I), N-[2-[[(diaminomethylene)amino]oxy]ethyl]-3-[(2,2-difluoro-2-phenylethyl)amino]-6-methyl-2-oxo-1(2H)-pyrazineacetamide]
- solubility at 1 h [1]: 980 µg/mL
- solubility at 2 h [1]: 980 µg/mL
- solubility at 4 h [1]: 1000 µg/mL
- solubility at 24 h [1]: 1000 µg/mL
- solubility at 48 h [1]: 990 µg/mL
- solubility at 0.5 h [1]: 920 µg/mL
- solubility at 4 h [2]: 1300 µg/mL
- solubility at 24 h [2]: 1200 µg/mL
- solubility at 48 h [2]: 1200 µg/mL
- solubility at 4 h [3]: 1000 µg/mL
- solubility at 24 h [3]: 1000 µg/mL
- solubility at 48 h [3]: 1000 µg/mL
- solubility at 1 h [4]: 8700 µg/mL
- solubility at 2 h [4]: 8800 µg/mL
- solubility at 4 h [4]: 10400 µg/mL
- solubility at 24 h [4]: 6900 µg/mL
- solubility at 48 h [4]: 7500 µg/mL
- solubility at 7 days [4]: 4000 µg/mL
- solubility at 0.5 h [4]: 7600 µg/mL
- solubility at 1 h [5]: 2400 µg/mL
- solubility at 2 h [5]: 2800 µg/mL
- solubility at 4 h [5]: 2500 µg/mL
- solubility at 24 h [5]: 2700 µg/mL
- solubility at 48 h [5]: 2700 µg/mL
- solubility at 0.5 h [5]: 2100 µg/mL
- solubility at 1 h [6]: 1800 µg/mL
- solubility at 2 h [6]: 1800 µg/mL
- solubility at 4 h [6]: 2000 µg/mL
- solubility at 24 h [6]: 1600 µg/mL
- solubility at 48 h [6]: 1500 µg/mL
- solubility at 7 days [6]: 1300 µg/mL
- solubility at 0.5 h [6]: 2100 µg/mL
- solubility at 1 h [7]: 40200 µg/mL
- solubility at 2 h [7]: 40900 µg/mL
- solubility at 4 h [7]: 43000 µg/mL
- solubility at 24 h [7]: 40400 µg/mL
- solubility at 48 h [7]: 39200 µg/mL
- solubility at 7 days [7]: 26900 µg/mL
- solubility at 0.5 h [7]: 31600 µg/mL
- solubility (simulated intestinal fluid (SIF), 25 °C, pH 6.75, fassgf or other biorelevant): 2700 to 2800 µg/mL
- solubility at 4 h [8]: 2800 µg/mL
- solubility at 24 h [8]: 2700 µg/mL
- solubility at 48 h [8]: 2700 µg/mL
- solubility at 4 h (water (pH ˜9)): 1100 µg/mL
- solubility at 24 h (water (pH ˜9)): 1100 µg/mL
- solubility at 48 h (water (pH ˜9)): 1100 µg/mL
